Experiments:
PASMCs = test: Intracellular pH (pHi) in PASMCs (BCECF-AM); format: cell-based, rat; conditions: for basal pHi, Baseline: before the compound
Protocol: The method for obtaining single PASMCs has been described previously in Shimoda L. A., et al., Am J Physiol 274: 842-853 (1998), which is hereby incorporated by reference in its entirety. Intrapulmonary arteries (200-600 μm o.d.) were isolated from male Wistar rats (250-350 g) and cleaned of connective tissue. After the lumen was gently rubbed with a cotton swab to remove the endothelial cells, the arteries were allowed to recover for 30 minutes in cold (4° C.) HBSS containing (in mM): 130 NaCl, 5 KCl, 1.2 MgCl2, 1.5 CaCl2, 10 N-[2-hydroxyethyl]piperazine-N′-[2-ethanesulfonic acid] (HEPES) and 10 glucose, with pH adjusted to 7.2 with 5 M NaOH, followed by 20 minutes in reduced-Ca^2+ (20 μM CaCl2) HBSS at room temperature. The tissue was enzymatically digested in reduced-Ca^2+ HBSS containing collagenase (type I; 1750 U/ml), papain (9.5 U/ml), bovine serum albumin (2 mg/ml) and dithiothreitol (1 mM) at 37° C. for 20 minutes. Following digestion, single smooth muscle cells were dispersed by gentle trituration with a wide-bore transfer pipette in Ca^2+-free HBSS and the cell suspension was placed on 25 mm glass cover slips. PASMCs were transiently cultured in Ham's-F-12 media supplemented with 0.5% fetal bovine serum and 1% penicillin/streptomycin for 24-48 hrs. before study.
pHi within PASMCs was monitored using the cell permeant pH sensitive dye 2′,7′-bis(carboxyethyl)-5(6)-carboxyflourescein (BCECF-AM). Cells were incubated with BCECF-AM for 60 min at 37° C. under an atmosphere of 21% O2-5% CO2. Cells were then washed with Kreb's solution for 15 min at 37° C. to remove extracellular dye and allow complete de-esterification of cytosolic dye. Cells were excited with light at 490 and 440 nm and light emitted from the cells was detected at 530 nm. The ratio of 490 to 440 nm emission was calculated and converted into pH values by performing a calibration curve after each experiment. PASMCs were subjected to a high K^+ buffer containing 10 μM nigericin, which allowed the cell to adopt the pH of the high K^+ buffer. Two high K^+/nigericin buffers were used to set pH to 6.5 or 7.5, pHi was estimated from in situ calibration after each experiment. Cells were perfused with a solution containing (in mM): 105 KCl, 1 MgCl2, 1.5 CaCl2, 10 glucose, 20 HEPES-Tris and 0.01 nigericin to allow pHi to equilibrate to external pH as in Quinn D. A., et al., Am J Respir Cell Mol Biol 5: 586-591 (1991), which is hereby incorporated by reference in its entirety. A two point calibration was created from fluorescence measured as pHi was adjusted with KOH from 6.5 to 7.5. Intracellular H^+ ion concentration ([H^+]i) was determined from pHi using the formula: pHi=−log ([H^+]i).

Beagle dogs = test: Dog study: plasma hormones, electrolytes and renal function; format: in vivo; conditions: for plasma renin activity: both acetazolamide protocols (iv, po)
Protocol: A total of 30 experiments were performed on six female Beagle dogs (body wt 14.3±0.3 kg). The dogs were kept under highly standardized conditions and received a standardized diet five days before the experiments. The preparation and catheterization of the conscious dog were performed according to former experiments as in Höhne C., et al., J Appl Physiol (2004), which is hereby incorporated by reference in its entirety. To permit spontaneous breathing through a low resistance circuit, a face mask was attached, which enclosed the dog's snout in a leak proof fashion. This custom made mask is equipped with a 2.5 cm ID connector to connect it to a ventilator set to CPAP mode (3 4 cmH20) (Servo900C; Siemens-Elema, Erlangen/Germany).
Six dogs were studied in five different protocols in randomized order:
4) Benzolamide intravenously: Bolus (2 mg/kg), followed by a continuous infusion of 2 mg·kg^−1·h^−1, a dosage which inhibits only renal and vascular endothelial extracellular CA, without affecting red cell CA as in Travis D. M., et al. J Pharmacol Exp Ther (1964), which is hereby incorporated by reference in its entirety. 5) Ethoxzolamide (Sigma-Aldrich, Steinheim/Germany) intravenously: Bolus ethoxzolamide (1 mg/kg), followed by a continuous infusion of 1 mg·kg^−1·h^−1.
In control experiments, the dogs breathed room air (21% O2, 79% N2; normoxia) for one hour, followed by breathing a gas mixture containing 10% O2 and 90% N2 for two hours (hypoxia). The time course was the same for the CA inhibitor experiments, but F1O2 was reduced to 0.09 during the hypoxia period to match the arterial and alveolar PO2 of the control dogs, which otherwise would have been higher on 10% O2 as a result of the known ventilatory stimulant effect of all CA inhibitors. See Höhne C., et al., J Appl Physiol 97:515-521 (2004), which is hereby incorporated by reference in its entirety. The hemodynamic measurements (arterial blood pressure, heart rate, central venous pressure, pulmonary artery pressure, pulmonary capillary wedge pressure), minute ventilation, renal function data, time points for blood samples for blood gases, actual bicarbonate, base excess, plasma electrolytes and hormones, measurements of plasma and urinary values were according to former studies. See Höhne C., et al., J Appl Physiol 90:1842-1848 (2001), which is hereby incorporated by reference in its entirety.
Values are given as means±SEM (n=6). For intra-group comparisons a general linear model of analysis of variance (GLM-ANOVA) for repeated measures was applied (NCSS97/PASS 2000, Saugus/MA, USA). Post-hoc testing of means was performed with Student's t-test. Level of significance for error of first order was adjusted according to Holm's procedure. Statistical significance was assumed at p<0.05.

[1] = iv bolus + continuous infusion, hypoxia 2nd h
[2] = iv bolus + continuous infusion, hypoxia 3rd h
[3] = iv bolus + continuous infusion, normoxia 1st h
[4] = po 5 mg/kg 12 and 1 hr before, hypoxia 2nd h
[5] = po 5 mg/kg 12 and 1 hr before, hypoxia 3rd h
[6] = po 5 mg/kg 12 and 1 hr before, normoxia 1st h

Row | Structure (SMILES) | effect on basal pHi (PASMCs; 100 μM) | basal pHi, Baseline (PASMCs) | GFR, glomerular filtration rate (Beagle dogs; [1]) [mL/min/kg] | PK, plasma potassium concentration (Beagle dogs; [1]) [mM] | UV, urine volume (Beagle dogs; [1]) [mL/min/kg] | GFR, glomerular filtration rate (Beagle dogs; [2]) [mL/min/kg] | PK, plasma potassium concentration (Beagle dogs; [2]) [mM] | UV, urine volume (Beagle dogs; [2]) [mL/min/kg] | GFR, glomerular filtration rate (Beagle dogs; [3]) [mL/min/kg] | PK, plasma potassium concentration (Beagle dogs; [3]) [mM] | UV, urine volume (Beagle dogs; [3]) [mL/min/kg] | basal pHi, Treatment (PASMCs; 100 μM) | plasma renin activity during hypoxia (Beagle dogs; iv bolus + continuous infusion) | other results
1 | CC(=O)Nc1nnc(S(N)(=O)=O)s1 [AZ, acetazolamide] | small decrease | 7.26±0.02 | 3.3 ± 0.1 | 2.8 ± 0.1 | 0.161 ± 0.022 | 3.4 ± 0.2 | 2.8 ± 0.1 | 0.071 ± 0.01 | 3.4 ± 0.1 | 3.0 ± 0.1 | 0.099 ± 0.013 | – | – | effect of hypoxia on pHi in treated cells (PASMCs; 100 μM, 4% O2): no effect; pHi after hypoxia in pretreated PASMCs (PASMCs; 100 μM, 4% O2): 7.24±0.03; plasma renin activity (Beagle dogs; hypoxia): 5 to 5.6 ng/mL/h; plasma renin activity (Beagle dogs; normoxia): 2.9 to 3.2 ng/mL/h; reduction of glomerular filtration rate vs controls (Beagle dogs; iv 2 mg/kg + 2 mg/kg/h, non-significant): 12%; GFR, glomerular filtration rate (Beagle dogs; [4]): 3.4 ± 0.3 mL/min/kg; PK, plasma potassium concentration (Beagle dogs; [4]): 2.9 ± 0.1 mM; UKV, urinary potassium concentration (Beagle dogs; [4]): 1.6 ± 0.3 µmol/min/kg; UV, urine volume (Beagle dogs; [4]): 0.083 ± 0.024 mL/min/kg; urinary excretion rate (potassium in 2.2, sodium in 2.3) (Beagle dogs; [4]): 1.6 ± 0.3 µmol/min/kg; GFR, glomerular filtration rate (Beagle dogs; [5]): 3.3 ± 0.2 mL/min/kg; PK, plasma potassium concentration (Beagle dogs; [5]): 2.9 ± 0.1 mM; UKV, urinary potassium concentration (Beagle dogs; [5]): 1.6 ± 0.4 µmol/min/kg; UV, urine volume (Beagle dogs; [5]): 0.048 ± 0.011 mL/min/kg; urinary excretion rate (potassium in 2.2, sodium in 2.3) (Beagle dogs; [5]): 1.3 ± 0.1 µmol/min/kg; GFR, glomerular filtration rate (Beagle dogs; [6]): 3.1 ± 0.2 mL/min/kg; PK, plasma potassium concentration (Beagle dogs; [6]): 2.9 ± 0.1 mM; UV, urine volume (Beagle dogs; [6]): 0.057 ± 0.011 mL/min/kg
2 | NS(=O)(=O)c1nnc(NS(=O)(=O)c2ccccc2)s1 [BZ, benzolamide] | significant decrease | 7.31 ± 0.02 | 3.0 ± 0.2 | 2.9 ± 0.1 | 0.104 ± 0.023 | 3.2 ± 0.2 | 2.8 ± 0.1 | 0.065 ± 0.015 | 2.9 ± 0.2 | 3.0 ± 0.1 | 0.066 ± 0.007 | 7.25 ± 0.03 | did not change | –
3 | CCOc1ccc2nc(S(N)(=O)=O)sc2c1 [EZ, ethoxzolamide] | significant decrease | 7.28 ± 0.04 | 3.1 ± 0.2 | 2.8 ± 0.1 | 0.072 ± 0.022 | 3.2 ± 0.2 | 2.7 ± 0.1 | 0.045 ± 0.006 | 3.2 ± 0.2 | 3.1 ± 0.1 | 0.052 ± 0.009 | 7.19 ± 0.04 | did not change | –
